The NIST ThermoML archive (doi:10.1016/j.jct.2006.03.018)

Legend:
[1] = xn = mol fraction of the nth substance listed; details: 101 kPa, Liquid
[2] = refractive index (Na D-line) (dimensionless); xn = mol fraction of the nth substance listed; details: 101 kPa, Liquid

CC(C)CCO [3-methylbutan-1-ol] + COc1ccccc1
Details	mass density, [1] [kg/m3]	refractive index, [2]	speed of sound, [1] [m/s]	viscosity, [1] [mPa·s]
298.15 K, x2 = 0	807.2	1.405	1241	3.835
298.15 K, x2 = 0.103	825.87	1.4159	1258	2.766
298.15 K, x2 = 0.2001	843.32	1.4269	1275	2.153
298.15 K, x2 = 0.3022	861.74	1.4378	1292	1.736
298.15 K, x2 = 0.3995	879.31	1.4487	1309	1.43
298.15 K, x2 = 0.4944	896.5	1.4579	1327	1.254
298.15 K, x2 = 0.5995	915.66	1.4688	1344	1.136
298.15 K, x2 = 0.6915	932.47	1.4797	1361	1.046
298.15 K, x2 = 0.8022	952.8	1.4906	1378	1.005
298.15 K, x2 = 0.9044	971.6	1.5015	1394	0.956
303.15 K, x2 = 0	803.45	1.403	–	3.261
303.15 K, x2 = 0.103	821.94	1.4138	–	2.408
303.15 K, x2 = 0.2001	839.25	1.4247	–	1.885
303.15 K, x2 = 0.3022	857.55	1.4355	–	1.544
303.15 K, x2 = 0.3995	875.01	1.4463	–	1.253
303.15 K, x2 = 0.4944	892.11	1.4575	–	1.135
303.15 K, x2 = 0.5995	911.16	1.468	–	1.03
303.15 K, x2 = 0.6915	929.01	1.4788	–	0.956
303.15 K, x2 = 0.8022	948.15	1.4896	–	0.938
303.15 K, x2 = 0.9044	966.9	1.5005	–	0.881
308.15 K, x2 = 0	791.86	–	–	–
308.15 K, x2 = 0.1036	808.48	1.3966	–	1.242
308.15 K, x2 = 0.2003	827.18	1.4129	–	1.078
308.15 K, x2 = 0.3055	848.11	1.4287	–	0.961
308.15 K, x2 = 0.4053	867.53	1.4426	–	0.879
308.15 K, x2 = 0.5096	888.55	1.4542	–	0.838
308.15 K, x2 = 0.6015	906.1	1.4673	–	0.821
308.15 K, x2 = 0.7071	924.94	1.4793	–	0.802
308.15 K, x2 = 0.8023	942.78	1.4897	–	0.795
308.15 K, x2 = 0.9044	960.74	1.499	–	0.792

COc1ccccc1 [anisole] + CC(C)CCO
x1 = 1
Details	mass density, 298.15 K [kg/m3]	mass density, 303.15 K [kg/m3]	mass density, 308.15 K [kg/m3]	refractive index, 298.15 K	refractive index, 303.15 K	refractive index, 308.15 K	speed of sound, 298.15 K [m/s]	viscosity, 298.15 K [mPa·s]	viscosity, 303.15 K [mPa·s]	viscosity, 308.15 K [mPa·s]
[1]	989.15	984.45	979.73	–	–	–	1412	0.988	0.913	0.854
[2]	–	–	–	1.5137	1.5113	1.5088	–	–	–	–

COc1ccccc1 [anisole] + CC(C)O
Details	mass density, 298.15 K [kg/m3]	mass density, 303.15 K [kg/m3]	mass density, 308.15 K [kg/m3]	refractive index, 298.15 K	refractive index, 303.15 K	refractive index, 308.15 K	speed of sound, 298.15 K [m/s]	viscosity, 298.15 K [mPa·s]	viscosity, 303.15 K [mPa·s]	viscosity, 308.15 K [mPa·s]
[1], x1 = 0.0964	809.04	804.55	799.99	–	–	–	1168	1.526	1.335	1.178
[1], x1 = 0.1995	836.66	832.04	827.34	–	–	–	1195	1.236	1.101	0.988
[1], x1 = 0.2995	861.3	856.56	851.78	–	–	–	1223	1.111	1	0.906
[1], x1 = 0.3965	882.77	877.97	873.12	–	–	–	1250	1.019	0.923	0.838
[1], x1 = 0.4947	903.09	898.25	893.38	–	–	–	1277	0.959	0.872	0.798
[1], x1 = 0.5932	921.89	917.04	912.14	–	–	–	1304	0.942	0.864	0.792
[1], x1 = 0.6966	940.52	935.67	930.78	–	–	–	1331	0.91	0.837	0.775
[1], x1 = 0.8069	958.9	954.07	949.22	–	–	–	1358	0.879	0.81	0.742
[1], x1 = 0.9052	974.58	969.52	965.01	–	–	–	1384	0.847	0.783	0.72
[1], x1 = 1	989.15	984.45	979.73	–	–	–	1412	0.988	0.913	0.854
[2], x1 = 0.0964	–	–	–	1.3925	1.3901	1.3879	–	–	–	–
[2], x1 = 0.1995	–	–	–	1.4115	1.4075	1.4064	–	–	–	–
[2], x1 = 0.2995	–	–	–	1.4275	1.4244	1.4226	–	–	–	–
[2], x1 = 0.3965	–	–	–	1.4427	1.4399	1.438	–	–	–	–
[2], x1 = 0.4947	–	–	–	1.4571	1.4535	1.451	–	–	–	–
[2], x1 = 0.5932	–	–	–	1.4701	1.467	1.465	–	–	–	–
[2], x1 = 0.6966	–	–	–	1.482	1.4793	1.4763	–	–	–	–
[2], x1 = 0.8069	–	–	–	1.495	1.4923	1.4884	–	–	–	–
[2], x1 = 0.9052	–	–	–	1.5049	1.5018	1.4999	–	–	–	–
[2], x1 = 1	–	–	–	1.5137	1.5113	1.5088	–	–	–	–

COc1ccccc1 [anisole] + CCCCCO
Details	mass density, 298.15 K [kg/m3]	mass density, 303.15 K [kg/m3]	mass density, 308.15 K [kg/m3]	refractive index, 298.15 K	refractive index, 303.15 K	refractive index, 308.15 K	speed of sound, 298.15 K [m/s]	viscosity, 298.15 K [mPa·s]	viscosity, 303.15 K [mPa·s]	viscosity, 308.15 K [mPa·s]
[1], x1 = 0.1013	828.63	824.77	820.91	–	–	–	1298	2.677	2.332	2.051
[1], x1 = 0.2032	846.67	842.67	838.66	–	–	–	1311	2.005	1.773	1.575
[1], x1 = 0.3022	864.26	860.11	855.96	–	–	–	1324	1.743	1.545	1.384
[1], x1 = 0.3946	880.67	876.42	872.17	–	–	–	1336	1.513	1.359	1.219
[1], x1 = 0.4912	897.83	893.47	889.11	–	–	–	1350	1.318	1.195	1.091
[1], x1 = 0.5984	916.91	912.45	907.98	–	–	–	1361	1.18	1.072	0.979
[1], x1 = 0.6976	934.59	930.04	925.49	–	–	–	1374	1.092	0.999	0.916
[1], x1 = 0.7965	952.41	947.78	943.15	–	–	–	1388	1.004	0.927	0.853
[1], x1 = 0.8974	970.59	965.9	961.2	–	–	–	1395	0.955	0.88	0.919
[1], x1 = 1	989.15	984.45	979.73	–	–	–	1412	0.988	0.913	0.854
[2], x1 = 0.1013	–	–	–	1.4091	1.4066	1.404	–	–	–	–
[2], x1 = 0.2032	–	–	–	1.4166	1.4138	1.4112	–	–	–	–
[2], x1 = 0.3022	–	–	–	1.4237	1.4219	1.4201	–	–	–	–
[2], x1 = 0.3946	–	–	–	1.4333	1.4302	1.4272	–	–	–	–
[2], x1 = 0.4912	–	–	–	1.4429	1.4401	1.4379	–	–	–	–
[2], x1 = 0.5984	–	–	–	1.4561	1.4533	1.451	–	–	–	–
[2], x1 = 0.6976	–	–	–	1.4667	1.4642	1.4616	–	–	–	–
[2], x1 = 0.7965	–	–	–	1.4807	1.4778	1.4747	–	–	–	–
[2], x1 = 0.8974	–	–	–	1.4963	1.4934	1.491	–	–	–	–
[2], x1 = 1	–	–	–	1.5137	1.5113	1.5088	–	–	–	–

COc1ccccc1 [anisole] + CCCCO
Details	mass density, 298.15 K [kg/m3]	mass density, 303.15 K [kg/m3]	mass density, 308.15 K [kg/m3]	refractive index, 298.15 K	refractive index, 303.15 K	refractive index, 308.15 K	speed of sound, 298.15 K [m/s]	viscosity, 298.15 K [mPa·s]	viscosity, 303.15 K [mPa·s]	viscosity, 308.15 K [mPa·s]
[1], x1 = 0.1064	824.95	820.92	816.89	–	–	–	1258	2.015	1.778	1.576
[1], x1 = 0.1923	841.43	837.28	833.12	–	–	–	1276	1.702	1.511	1.352
[1], x1 = 0.2988	861.78	857.49	853.21	–	–	–	1298	1.409	1.261	1.136
[1], x1 = 0.3972	880.06	875.69	871.31	–	–	–	1314	1.285	1.145	1.051
[1], x1 = 0.493	897.25	892.77	888.3	–	–	–	1334	1.129	1.041	0.939
[1], x1 = 0.5968	922.83	918.26	913.66	–	–	–	1347	1.063	0.968	0.886
[1], x1 = 0.7834	930.28	925.7	921.11	–	–	–	1364	0.985	0.907	0.844
[1], x1 = 0.8332	957.86	953.17	948.47	–	–	–	1376	0.968	0.893	0.824
[1], x1 = 0.892	969.05	964.35	959.64	–	–	–	1390	0.962	0.884	0.822
[1], x1 = 1	989.15	984.45	979.73	–	–	–	1412	0.988	0.913	0.854
[2], x1 = 0.1064	–	–	–	1.4108	1.4069	1.4031	–	–	–	–
[2], x1 = 0.1923	–	–	–	1.4221	1.4197	1.4173	–	–	–	–
[2], x1 = 0.2988	–	–	–	1.4354	1.4332	1.4307	–	–	–	–
[2], x1 = 0.3972	–	–	–	1.4473	1.4449	1.4421	–	–	–	–
[2], x1 = 0.493	–	–	–	1.4586	1.4563	1.4535	–	–	–	–
[2], x1 = 0.5968	–	–	–	1.4719	1.4679	1.4651	–	–	–	–
[2], x1 = 0.7834	–	–	–	1.4848	1.4822	1.4795	–	–	–	–
[2], x1 = 0.8332	–	–	–	1.4911	1.4888	1.4858	–	–	–	–
[2], x1 = 0.892	–	–	–	1.5027	1.5005	1.4966	–	–	–	–
[2], x1 = 1	–	–	–	1.5137	1.5113	1.5088	–	–	–	–
